System: primary astrocytes
Experiment: Activation of cultured primary astrocytes, mRNA expression
Format: cell-based, mouse
Conditions: for transcriptional response of astrocytes to LPS/IFNγ: 1 h pre-treatment (PDMP 25 μM; LacCer 10 μM), LPS 100 ng/ml and IFNγ 100 Units/ml, 6 h
Procedure: FIGS. 3a-m. LacCer produced by B4GALT6 acts in an autocrine manner to boost astrocyte activation. Cultured astrocytes were pre-treated for 1 h with PDMP (25 μM), LacCer (10 μM), both (LacCer+PDMP), or vehicle (vehicle), followed by activation with lipopolysaccharide (100 ng/ml) and Interferon-γ (100 Units/ml) (LPS/IFNγ) or left un-treated (control). (a) Heatmap depicting mRNA expression, as detected by Nanostring nCounter analysis, in astrocytes stimulated with LPS/IFNγ. Representative data of three independent experiments. (b) Histogram presentation of the normalized gene expression presented in (a), statistical analysis by one-way ANOVA followed by Tukey post-hoc analysis. (c-i) The expression of B4galt5 (shB4galt5), B4galt6 (shB4galt6) or non-targeting shRNA (ShControl) in C8-D30 astrocytes was knocked-down using verified shRNA (n≥4). (c) qRT analysis of B4galt5 and B4galt6 mRNA expression. (d-f) astrocytes were activated as in (a) and mRNA expression for (d) H2-Aa, (e) Ccl5 and (f) Cxcl10 was determined; expression is presented relative to house keeping gene (Gapdh) (n≥4). (g) Schematic map of the astrocyte-specific shRNA lentiviral vector. […] NOD mice were injected i.c.v. with 1×10^7 IU of shControl, shB4galt5 or shB4galt6 lentivirus, at day 35 after EAE induction (progressive phase). n=10 mice per group (h, i) 10 days after i.c.v. injection experiment was terminated and (h) b4galt5 and b4galt6 expression levels were determined by qPCR in astrocytes isolated from naïve or EAE NOD mice; expression normalized to gapdh and presented relative to that of cells from naïve mice. Representative data of two independent experiments, Statistical analysis by one-way ANOVA, followed by Tukey post-hoc analysis. (i) LacCer levels were quantified of in the CNS of naïve or EAE NOD mice treated as shown in (j). Statistical analysis by one-way ANOVA, followed by Tukey post-hoc analysis. (j) EAE clinical scores. Representative data of two independent experiments. Statistical analysis as in (FIG. 1a). (k) Cultured primary astrocytes were pre-treated for 1 h with PDMP (25 μM), LacCer (10 μM), both (LacCer+PDMP), or vehicle control (vehicle), followed by activation with LPS/IFNγ for 45 min, or left un-treated (control, Con). IRF-1 and Lamin B expression in the nuclear fraction analyzed by western blot and the degree of IRF-1 translocation to the nucleus was assessed by the ratio between the expression of IRF-1 and Lamin-B in the nuclear fractions following densitometric quantification on four independent experiments (right panel). Statistical analysis by one-way ANOVA, followed by Tukey post-hoc analysis. (l) ChIP analysis of the interaction of NF-κB, and IRF-1 with the) nos2 promoter in primary cultured astrocytes. Experimental design and data analysis as in (FIG. 4c). Data from two independent experiments (m) qPCR analysis of the expression of nos2, csf2, ccl2, ccl5, il6, and tlr2 in astrocyte cultures established from WT or IRF-1 deficient (IRF-1 KO) mice, pre-treated with LacCer or vehicle, and activated with LPS/IFNγ. […]
FIGS. 14a-g. […] (a) Cultured astrocytes were pre-treated for 1 h with PDMP (25 μM), LacCer (10 μM), both (LacCer+PDMP), or vehicle control (vehicle), followed by activation with LPS/IFNγ for 6 h, or left un-treated (control, Con). mRNA expression was analyzed 6 h following activation. qPCR analysis of the expression of cc/5, csf2, nos2, il6, H2-Aa, and tlr2 presented relative to gapdh. […]

Molecule	transcriptional response of astrocytes to LPS/IFNγ	h2-Aa, ccl5 and cxcl10 expression in B4GALT6 knocked-down astrocytes (astrocytes with shB4galt6, PDMP pre-treatment, LPS/IFNγ 6 h)	astrocyte activation, LacCer added to PDMP (LacCer 10 μM + PDMP 25 μM, LPS/IFNγ)
CCCCCCCCCC(=O)N[C@H](CN1CCOCC1)[C@H](O)c1ccccc1 [PDMP, D-threo-1-phenyl-2-decanoylamino-3-morpholino-1-propanol]	suppressed the transcriptional response	did not further suppress	–
lactosylceramide [LacCer]	boosted the response	–	overcame the suppressive effects of PDMP

— patent publication US9927437B2, “Treating neurodegenerative disease” (THE BRIGHAM AND WOMEN'S HOSPITAL, INC., priority 2013, dated 2018)
